This is an account of results in patent publication US20210221866A1, “PROTEASE-RESISTANT LIPIDATED GLP-1 ANALOGS” (MEDIMMUNE LIMITED, priority 2015, published 2021).

One may read the EC50 as the concentration needed to bring the measured effect to its halfway point.

Common to all, as to format: cell-based
What all share (conditions): Table 9, bis-lipidated peptides

Assay [1] deals with T1, human GLP-1 receptor (GLP-1R) (Homo sapiens, UniProt P43220).
T1 construct: expressed in transfected cells; host or cells: HEK293 cells or CHO cells
T1 sequence (P43220 24-463): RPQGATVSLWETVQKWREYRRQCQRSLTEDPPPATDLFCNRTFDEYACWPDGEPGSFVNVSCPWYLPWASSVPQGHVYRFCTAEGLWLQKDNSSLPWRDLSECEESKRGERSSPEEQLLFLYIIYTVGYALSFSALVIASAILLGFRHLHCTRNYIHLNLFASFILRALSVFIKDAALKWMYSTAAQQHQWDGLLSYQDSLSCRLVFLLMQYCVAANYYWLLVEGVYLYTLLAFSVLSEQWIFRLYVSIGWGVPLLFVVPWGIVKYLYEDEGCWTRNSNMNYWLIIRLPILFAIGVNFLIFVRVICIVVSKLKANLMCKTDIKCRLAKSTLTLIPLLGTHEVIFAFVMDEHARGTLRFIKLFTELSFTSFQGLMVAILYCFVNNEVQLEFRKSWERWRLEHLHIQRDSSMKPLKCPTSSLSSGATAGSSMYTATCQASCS
Kind of assay: cAMP assay, human GLP-1R cells. The method in brief:
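Peptide-stimulated cAMP measured by two-step HTRF after a 30 min room-temperature incubation with receptor-expressing cells (hGLP-1R, hGIPR at 1×10^5 cells/ml; hGCGR at 2×10^5 cells/ml). Duplicate dilutions; EC50 from 4-parameter logistic fit of % Delta F.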
For orientation: Cyclic AMP is a second messenger, typically raised through Gs and lowered through Gi signalling.

Assay [2] addresses T2, human glucagon receptor (GCGR) (Homo sapiens, UniProt P47871).
T2 construct: expressed in transfected cells; host or cells: HEK293 cells or CHO cells
Description: cAMP assay, human GCGR cells. The protocol:
(§1) Sample dilutions are made in duplicate.
(§2) A frozen cryo-vial of cells expressing the receptor of interest is thawed rapidly in a water-bath, transferred to pre-warmed assay buffer and spun at 240×g for 5 minutes. Cells are re-suspended in assay buffer at a batch-dependent optimized concentration (e.g. hGCGR cells at 2×10^5 cells/ml, hGLP-1R and hGIPR cells at 1×10^5 cells/ml).
(§3) To this, 5 μL cell suspension is added and the plates incubated at room temperature for 30 minutes.
(§4) cAMP levels are measured using a commercially available cAMP dynamic 2 HTRF kit (Cisbio, Cat #62AM4PEJ), following the two step protocol as per manufacturer's recommendations. In brief; anti-cAMP cryptate (donor fluorophore) and cAMP-d2 (acceptor fluorophore) are made up separately by diluting each 1/20 in conjugate & lysis buffer provided in the kit. 5 μL anti-cAMP cryptate is added to wells of the assay plate, and 5 μL cAMP-d2 is added to wells except non-specific binding (NSB) wells, to which conjugate and lysis buffer are added. […] EC50 values of the synthetic peptides determined in cAMP assays are then determined.
(§5) Data is transformed to % Delta F as described in the manufacturer's guidelines and analyzed by 4-parameter logistic fit to determine EC50 values. […] To compare the balance of activities at the GLP-1R and GCGR between different peptides and across different conditions, these can be correlated, where the EC50's are related to those of comparator peptides.

Assay [3] has as its target T3, human glucose-dependent insulinotropic peptide receptor (GIPR) (Homo sapiens, UniProt P48546).
T3 construct: expressed in transfected cells; host or cells: HEK293 cells or CHO cells
T3 sequence (P48546 22-466): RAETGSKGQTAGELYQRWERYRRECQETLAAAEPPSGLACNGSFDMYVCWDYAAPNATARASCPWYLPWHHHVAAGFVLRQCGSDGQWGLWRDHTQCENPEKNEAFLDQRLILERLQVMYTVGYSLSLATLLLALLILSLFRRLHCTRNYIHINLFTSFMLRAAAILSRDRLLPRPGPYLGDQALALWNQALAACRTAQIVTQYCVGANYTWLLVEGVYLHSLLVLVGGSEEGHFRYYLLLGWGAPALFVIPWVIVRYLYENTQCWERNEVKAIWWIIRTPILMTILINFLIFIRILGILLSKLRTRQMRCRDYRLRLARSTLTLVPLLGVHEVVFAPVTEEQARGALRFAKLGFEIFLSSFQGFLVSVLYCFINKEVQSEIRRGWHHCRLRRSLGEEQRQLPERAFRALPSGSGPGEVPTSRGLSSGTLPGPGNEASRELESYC
Kind of assay: cAMP assay, human GIPR cells. The protocol: as §1, §2, §3, §4, §5

Where [4] appears, read: first replicate, read-out: Primary assay EC50 Gluc-R (n1).
Where [5] appears, read: second replicate, read-out: Primary assay EC50 Gluc-R (n2).
[6] abbreviates: first replicate, read-out: Primary assay EC50 GIP-R (n1).
[7] abbreviates: second replicate, read-out: Primary assay EC50 GIP-R (n2).

Structures are written as SMILES. Where two headings read alike, the source gives them in different places. Numbered stars: 1 amine (or outer) side, 2 acyl side, 3 side chain; on linkers, the order of the positions; unused ones are H or OH. Square brackets hold non-standard residues; d marks the D form. Side chains are listed from the residue outwards. Peptide text beside a SMILES is read from it. * marks the point of attachment. C16 diacid = O=C(O)CCCCCCCCCCCCCCC(=O)*; γGlu = O=C(O)[C@H](CCC(=O)[*:2])N[*:1]; Stearoyl = CCCCCCCCCCCCCCCCCC(=O)*; αMeF = C[C@](N)(Cc1ccccc1)C(=O)O; Myristoyl = CCCCCCCCCCCCCC(=O)*; αMeK = C[C@](N)(CCCCN)C(=O)O; Lauroyl = CCCCCCCCCCCC(=O)*; αMeS = C[C@](N)(CO)C(=O)O; AEEA = NCCOCCOCC(=O)O; Aib = CC(C)(N)C(=O)O

T2 sequence (P47871 26-477): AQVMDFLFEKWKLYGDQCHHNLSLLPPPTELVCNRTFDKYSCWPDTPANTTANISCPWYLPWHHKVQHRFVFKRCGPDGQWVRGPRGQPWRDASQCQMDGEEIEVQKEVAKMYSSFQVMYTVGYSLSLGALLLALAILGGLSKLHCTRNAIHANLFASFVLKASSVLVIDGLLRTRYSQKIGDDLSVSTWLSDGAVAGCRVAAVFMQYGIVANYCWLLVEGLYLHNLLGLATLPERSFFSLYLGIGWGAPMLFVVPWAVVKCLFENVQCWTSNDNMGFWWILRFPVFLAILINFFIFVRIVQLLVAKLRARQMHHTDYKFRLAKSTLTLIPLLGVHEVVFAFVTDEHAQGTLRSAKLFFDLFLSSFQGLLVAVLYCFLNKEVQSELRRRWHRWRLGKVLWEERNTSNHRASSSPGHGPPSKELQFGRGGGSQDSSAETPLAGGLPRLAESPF

On to `CC[C@H](C)[C@H](NC(=O)[C@H](Cc1ccccc1)NC(=O)[C@H](CCC(=O)O)NC(=O)[C@](C)(CCCCN)NC(=O)[C@H](C)NC(=O)[C@H](C)NC(=O)[C@H](CCC(=O)O)NC(=O)CNC(=O)[C@H](CCC(=O)O)NC(=O)[C@H](CC(C)C)NC(=O)[C@H](CCCCNC(=O)COCCOCCNC(=O)COCCOCCNC(=O)CC[C@H](NC(=O)CCCCCCCCCCCCCCC(=O)O)C(=O)O)NC(=O)[C@H](CO)NC(=O)[C@](C)(CO)NC(=O)[C@@H](NC(=O)[C@H](CC(=O)O)NC(=O)[C@H](CO)NC(=O)[C@@H](NC(=O)[C@](C)(Cc1ccccc1)NC(=O)[C@H](CO)NC(=O)CNC(=O)[C@H](CCC(=O)O)NC(=O)C(C)(C)NC(=O)[C@@H](N)Cc1c[nH]cn1)[C@@H](C)O)C(C)C)C(=O)N[C@@H](C)C(=O)N[C@@H](Cc1c[nH]c2ccccc12)C(=O)N[C@@H](CCCCNC(=O)COCCOCCNC(=O)COCCOCCNC(=O)CC[C@H](NC(=O)CCCCCCCCCCCCCCC(=O)O)C(=O)O)C(=O)N[C@H](C(=O)N[C@@H](CCC(=O)O)C(=O)NCC(=O)NCC(N)=O)C(C)C` [compound 267] (H-H[Aib]EGS[αMeF]TSDV[αMeS]SK([AEEA-AEEA-γGlu-C16 diacid])LEGEAA[αMeK]EFIAWK([AEEA-AEEA-γGlu-C16 diacid])VEGG-NH2; N-terminus assumed), for which the EC50 is 569 pM in assay [1] (mean of n1 and n2, read-out: Primary assay EC50 Mean pM GLP-1R); 628 pM in assay [1] (replicate n1, read-out: Primary assay EC50 GLP-1R n1); 510 pM in assay [1] (replicate n2, read-out: Primary assay EC50 GLP-1R n2); at least 21.7 nM in assay [2] (setting [4]); at least 21.7 nM in assay [2] (setting [5]); at least 21.7 nM in assay [3] (setting [6]). For the same molecule, in assay [3] (setting [7]), the EC50 is at least 21.7 nM.
As for `CCCCCCCCCCCC(=O)N[C@@H](CCC(=O)NCCOCCOCC(=O)NCCOCCOCC(=O)NCCCC[C@H](NC(=O)[C@H](CC(=O)O)NC(=O)[C@H](CO)NC(=O)[C@@H](NC(=O)[C@](C)(Cc1ccccc1)NC(=O)[C@H](CO)NC(=O)CNC(=O)[C@H](CCC(=O)O)NC(=O)C(C)(C)NC(=O)[C@@H](N)Cc1c[nH]cn1)[C@@H](C)O)C(=O)N[C@@H](CO)C(=O)N[C@@H](CO)C(=O)N[C@@H](Cc1ccc(O)cc1)C(=O)N[C@@H](CC(C)C)C(=O)N[C@@H](CCC(=O)O)C(=O)NCC(=O)N[C@@H](CCC(=O)O)C(=O)N[C@@H](C)C(=O)N[C@@H](C)C(=O)N[C@@](C)(CCCCN)C(=O)N[C@@H](CCC(=O)O)C(=O)N[C@@H](Cc1ccccc1)C(=O)N[C@H](C(=O)N[C@@H](C)C(=O)N[C@@H](Cc1c[nH]c2ccccc12)C(=O)N[C@@H](CCCCNC(=O)COCCOCCNC(=O)COCCOCCNC(=O)CC[C@H](NC(=O)CCCCCCCCCCC)C(=O)O)C(=O)N[C@H](C(=O)N[C@@H](CCC(=O)O)C(=O)NCC(=O)NCC(N)=O)C(C)C)[C@@H](C)CC)C(=O)O` [compound 258] (H-H[Aib]EGS[αMeF]TSDK([AEEA-AEEA-γGlu-Lauroyl])SSYLEGEAA[αMeK]EFIAWK([AEEA-AEEA-γGlu-Lauroyl])VEGG-NH2), the EC50 in assay [2] (setting [4]), in assay [2] (setting [5]), in assay [3] (setting [6]) and in assay [3] (setting [7]) was at least 22.3 nM in each case.
As for `CCCCCCCCCCCC(=O)N[C@@H](CCC(=O)NCCOCCOCC(=O)NCCOCCOCC(=O)NCCCC[C@H](NC(=O)[C@H](C)NC(=O)[C@@H](NC(=O)[C@H](Cc1ccccc1)NC(=O)[C@H](CCC(=O)O)NC(=O)[C@](C)(CCCCN)NC(=O)[C@H](C)NC(=O)[C@H](C)NC(=O)[C@H](CCC(=O)O)NC(=O)CNC(=O)[C@H](CCC(=O)O)NC(=O)[C@H](CC(C)C)NC(=O)[C@H](Cc1ccc(O)cc1)NC(=O)[C@H](CO)NC(=O)[C@H](CO)NC(=O)[C@H](CCCCNC(=O)COCCOCCNC(=O)COCCOCCNC(=O)CC[C@H](NC(=O)CCCCCCCCCCC)C(=O)O)NC(=O)[C@H](CC(=O)O)NC(=O)[C@H](CO)NC(=O)[C@@H](NC(=O)[C@](C)(Cc1ccccc1)NC(=O)[C@H](CO)NC(=O)CNC(=O)[C@H](CCC(=O)O)NC(=O)C(C)(C)NC(=O)[C@@H](N)Cc1c[nH]cn1)[C@@H](C)O)[C@@H](C)CC)C(=O)N[C@H](C(=O)N[C@H](C(=O)N[C@@H](CCC(=O)O)C(=O)NCC(=O)NCC(N)=O)C(C)C)C(C)C)C(=O)O` [compound 257] (H-H[Aib]EGS[αMeF]TSDK([AEEA-AEEA-γGlu-Lauroyl])SSYLEGEAA[αMeK]EFIAK([AEEA-AEEA-γGlu-Lauroyl])VVEGG-NH2), the concentration for a half-maximal effect (EC50) in assay [2] (setting [4]), in assay [2] (setting [5]), in assay [3] (setting [6]) and in assay [3] (setting [7]) was at least 22.8 nM each time.
On to `CCCCCCCCCCCCCCCCCC(=O)N[C@@H](CCC(=O)NCCOCCOCC(=O)NCCOCCOCC(=O)NCCCC[C@H](NC(=O)[C@H](C)NC(=O)[C@@H](NC(=O)[C@](C)(Cc1ccccc1)NC(=O)[C@H](CCC(=O)O)NC(=O)[C@](C)(CCCCN)NC(=O)[C@H](C)NC(=O)[C@H](C)NC(=O)[C@H](CCC(=O)O)NC(=O)CNC(=O)[C@H](CCC(=O)O)NC(=O)[C@H](CC(C)C)NC(=O)[C@H](CCCCNC(=O)COCCOCCNC(=O)COCCOCCNC(=O)CC[C@H](NC(=O)CCCCCCCCCCCCCCCCC)C(=O)O)NC(=O)[C@H](CO)NC(=O)[C@](C)(CO)NC(=O)[C@@H](NC(=O)[C@H](CC(=O)O)NC(=O)[C@H](CO)NC(=O)[C@@H](NC(=O)[C@](C)(Cc1ccccc1)NC(=O)[C@H](CO)NC(=O)CNC(=O)[C@H](CCC(=O)O)NC(=O)C(C)(C)NC(=O)[C@@H](N)Cc1c[nH]cn1)[C@@H](C)O)C(C)C)[C@@H](C)CC)C(=O)N[C@H](C(=O)N[C@H](C(=O)N[C@@H](CCC(=O)O)C(=O)NCC(=O)NCC(N)=O)C(C)C)C(C)C)C(=O)O` [compound 410] (H-H[Aib]EGS[αMeF]TSDV[αMeS]SK([AEEA-AEEA-γGlu-Stearoyl])LEGEAA[αMeK]E[αMeF]IAK([AEEA-AEEA-γGlu-Stearoyl])VVEGG-NH2; N-terminus assumed), for which the EC50 in assay [2] (setting [4]), in assay [2] (setting [5]), in assay [3] (setting [6]) and in assay [3] (setting [7]) was at least 21.5 nM each time.
In the case of `CCCCCCCCCCCCCC(=O)N[C@@H](CCC(=O)NCCOCCOCC(=O)NCCOCCOCC(=O)NCCCC[C@H](NC(=O)[C@H](C)NC(=O)[C@@H](NC(=O)[C@](C)(Cc1ccccc1)NC(=O)[C@H](CCC(=O)O)NC(=O)[C@](C)(CCCCN)NC(=O)[C@H](C)NC(=O)[C@H](C)NC(=O)[C@H](CCC(=O)O)NC(=O)CNC(=O)[C@H](CCC(=O)O)NC(=O)[C@H](CC(C)C)NC(=O)[C@H](CCCCNC(=O)COCCOCCNC(=O)COCCOCCNC(=O)CC[C@H](NC(=O)CCCCCCCCCCCCC)C(=O)O)NC(=O)[C@H](CO)NC(=O)[C@](C)(CO)NC(=O)[C@@H](NC(=O)[C@H](CC(=O)O)NC(=O)[C@H](CO)NC(=O)[C@@H](NC(=O)[C@](C)(Cc1ccccc1)NC(=O)[C@H](CO)NC(=O)CNC(=O)[C@H](CCC(=O)O)NC(=O)C(C)(C)NC(=O)[C@@H](N)Cc1c[nH]cn1)[C@@H](C)O)C(C)C)[C@@H](C)CC)C(=O)N[C@H](C(=O)N[C@H](C(=O)N[C@@H](CCC(=O)O)C(=O)NCC(=O)NCC(N)=O)C(C)C)C(C)C)C(=O)O` [compound 408] (H-H[Aib]EGS[αMeF]TSDV[αMeS]SK([AEEA-AEEA-γGlu-Myristoyl])LEGEAA[αMeK]E[αMeF]IAK([AEEA-AEEA-γGlu-Myristoyl])VVEGG-NH2), the EC50 in assay [2] (setting [4]), in assay [2] (setting [5]), in assay [3] (setting [6]) and in assay [3] (setting [7]) was at least 21.5 nM each time.
